Test results as given in patent US12702654B2, “Compositions and methods for treating homocystinuria and other conditions using polyamines” (THE REGENTS OF THE UNIVERSITY OF COLORADO, priority 2020, dated 2026).
“Also recorded” adds a separate entry of the source.

How the values were obtained:
HO HCU mice [1] = experiment: Hepatic polyamines and MTA by LC-tandem MS in HO HCU mice; format: in vivo, mouse
Experimental: A comparative reference data set was generated for these mice by examining plasma levels of tHcy, methionine, cysteine, serine, glycine, dimethylglycine, methylglycine (MG, SAM and SAH). In brief, determination of plasma levels of amino acids relevant to the methionine cycle were determined using methods similar to those described in Stabler et al., Blood. 81 (1993) 3404-3413, incorporated in its entirety herein. […] The global metabolomic analysis of methionine and folate cycle related metabolites was carried out by Metabolon, Inc. Briefly, sample preparation was performed utilizing the automated MicroLab STAR® system. Sample preparation was performed using a proprietary series of organic and aqueous extractions to remove the protein fraction while allowing maximum recovery of small molecules. The resulting extract was divided into two fractions: one for analysis by liquid chromatography and one for analysis by gas chromatography. Each sample was then frozen and dried under vacuum. The LC/mass spectrometer portion of the platform was based on a Waters ACQUITY UPLC and a Thermo-Finnigan LTQ mass spectrometer, which consisted of an electrospray ionization source and linear ion-trap mass analyzer. Samples were analyzed on a Thermo-Finnigan Trace DSQ fast-scanning single-quadrupole mass spectrometer using electron impact ionization. Identification of known chemical entities was based on comparison to library entries of authenticated standards. Tissue polyamines putrescine, spermidine and spermine and 5-methylthioadenosine (MTA) were determined by liquid chromatography-tandem mass spectrometry using methods similar to those described in Stevens et al., J Chromatogr A 1217 (2010) 3282-3288, incorporated in its entirety herein.

GNMT = experiment: Western blotting of hepatic GNMT expression; format: in vivo, mouse; conditions: HO HCU mice, 30 g/l in drinking water ad libitum, one week
Experimental: To investigate the effects of these treatments upon the hepatic regulatory changes in enzyme expression induced by HCU, the human transgenic HO mouse model of HCU was used. In brief, experimental groups consisting of 8 HO mice on a C57BL/6J background and 8 C57BL/6J WT littermate control mice bred in house were used. Mice in both groups were male and aged between 3 and 4 months. Except where otherwise stated, all mice were maintained on standard chow. All diets were administered using a paired-feeding design to ensure isocaloric intake between all experimental groups and body weights were measured once per week. There was no significant difference in body weight between mice in any of the experimental groups. Betaine and taurine were in this example, both administered by dissolving these compounds in drinking water at 30 g/l ([…] 3% w/v) and were supplied ad libitum for one week. Treatment water was replenished twice per week.
These observations are the first to report betaine and taurine acting to regulate expression of these processes. Therefore, this observation supports that taurine alone or in combination with betaine and other treatments for genetic homocystinuria are viable options for avoiding dietary restraints and treating these conditions.

HO HCU mice [2] = experiment: Tail bleeding time / hypercoagulative phenotype in HO HCU mice; format: in vivo, mouse
Experimental: In another exemplary method, effect of polyamines (e.g. spermidine and spermine) on the hypercoagulative phenotype induced by HCU was assessed which is a measure of treatment for genetic HCU where rapid coagulation is a side effect of these conditions. In brief, mice containing both the human CBS transgene and no functional copy of the mouse equivalent gene were identified by PCR from the litters of progeny of 11181×MKO^+/− F1 mice backcrossed to MKO^+/− mice. These mice were designated as “human only” (HO) mice and used as a human model of HCU. […] In order to further investigate the possible therapeutic potential of polyamine (e.g. spermidine and spermine) therapy in HCU, WT and HO HCU mice were given either: […]; […] in drinking water given ad libitum; or drinking water (untreated, control). After one week, tail bleeding times were determined for untreated wild type (WT) control B6 mice and HO HCU mice from all treatment groups.

[3] = tested on: pro-inflammatory cytokines (TNF-α, IL-1β); experiment: Pro-inflammatory cytokine expression in HO HCU mice; format: in vivo, mouse
HO HCU mice [4] = conditions: earlier study, cited from earlier work
HO HCU mice [5] = experiment: Plasma metabolite levels (tHcy, methionine cycle amino acids, SAM, SAH) in HO HCU mice; format: in vivo, mouse; conditions: long-term betaine treatment, no methionine-restriction
Cbs null mouse = conditions: betaine treatment; cited from earlier work
[6] = HO HCU mice, one week of betaine treatment
[7] = HO HCU mice, prolonged betaine treatment

## C[N+](C)(C)CC(=O)O [betaine, N,N,N-trimethylglycine]
HO HCU mice [1]; HO HCU mice ± betaine vs WT, n=8 per group, data not shown
  hepatic levels of putrescine: no statistical difference
HO HCU mice [1]; [6]
  hepatic spermidine: normalized relative to WT mice
  hepatic spermine: normalized relative to WT mice
HO HCU mice [1]; HO HCU mice, one week of betaine treatment, p<0.001
  hepatic MTA levels compared to untreated HO HCU mice: approximate doubling
GNMT
  hepatic GNMT expression: induced expression
HO HCU mice [2]; betaine treatment (one week)
  hypercoagulative phenotype: significant amelioration of the hypercoagulative phenotype; also recorded: responded to betaine treatment
HO HCU mice [2]; prolonged betaine treatment
  coagulation phenotype: reversion to a hypercoagulative phenotype
[3]; [7]
  plasma levels of IL-1β: significant increase
  plasma levels of TNF-α: significant increase
[3]; HO model, one week of betaine treatment
  pro-inflammatory cytokine expression: virtual ablation of most of the pro-inflammatory cytokine expression; also recorded: decrease pro-inflammatory cytokine expression
HO HCU mice [4]; HCU mice, longer period of betaine treatment
  total homocysteine levels after a longer period of treatment: greater than 100 μM
HO HCU mice [4]; mouse model of HCU, betaine treatment
  plasma homocysteine: below 100 μM
HO HCU mice [5]
  ability of betaine treatment to lower homocysteine: diminished significantly over time
Cbs null mouse
  Hcy in Cbs (−/−) mice: without significantly lowering Hcy
  fertility of female Cbs (−/−) mice: restored fertility
  severe liver injury, steatosis, and fibrosis in Cbs (−/−) mice: not significantly improved
  survival of Cbs (−/−) mice: improved survival
